Measurements as given in patent publication US6518243B1, “Desleucyl glycopeptide antibiotics and methods of making same” (Trustees of Princeton University, priority 1999, dated 2003).

Key:
S. aureus (ATCC 29213) = test: Zone of inhibition screen, 96 well agar array format; format: cell-based; design: scale not given here
Outline: (§1)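 Read-out is antibacterial activity on agar laid out as a 96-well array; every compound went through all strains of the panel.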

E. faecalis (CL 4877) = test: as above; format: cell-based; design: scale not given here
Outline: as §1

[1] = zone of inhibition relative to 1 mg/ml p-chlorobiphenylvancomycin
[2] = zone of inhibition relative to 1 mg/ml stock solution of p-chlorobiphenylvancomycin

Structure (SMILES)	zone score, S. aureus ATCC 29213 (S. aureus (ATCC 29213); [1])	zone score, E. faecalis CL 4877 (E. faecalis (CL 4877); [1])	zone score, S. aureus ATCC 29213 (S. aureus (ATCC 29213); [2])	zone score, E. faecalis CL 4877 (E. faecalis (CL 4877); [2])
CC1OC(OC2C(Oc3c4cc5cc3Oc3ccc(cc3Cl)C(O)C3NC(=O)C(NC(=O)C5NC(=O)C(CC(N)=O)NC(=O)C(NC(=O)c5cc(C(F)(F)F)cc(C(F)(F)F)c5)C(O)c5ccc(c(Cl)c5)O4)c4ccc(O)c(c4)-c4c(O)cc(O)cc4C(C(=O)O)NC3=O)OC(CO)C(O)C2O)CC(C)(NCc2ccc(-c3ccc(Cl)cc3)cc2)C1O (stereo not drawn) [Compound 254]	2	2	–	–
CC(NC=O)C(=O)NC1C(=O)NC(CC(N)=O)C(=O)NC2C(=O)NC3C(=O)NC(C(=O)NC(C(=O)O)c4cc(O)cc(O)c4-c4cc3ccc4O)C(O)c3ccc(c(Cl)c3)Oc3cc2cc(c3OC2OC(CO)C(O)C(O)C2OC2CC(C)(NCc3ccc(-c4ccc(Cl)cc4)cc3)C(O)C(C)O2)Oc2ccc(cc2Cl)C1O (stereo not drawn) [Compound 194]	–	–	2	2
C=C(C(=O)NC1C(=O)NC(CC(N)=O)C(=O)NC2C(=O)NC3C(=O)NC(C(=O)NC(C(=O)O)c4cc(O)cc(O)c4-c4cc3ccc4O)C(O)c3ccc(c(Cl)c3)Oc3cc2cc(c3OC2OC(CO)C(O)C(O)C2OC2CC(C)(NCc3ccc(-c4ccc(Cl)cc4)cc3)C(O)C(C)O2)Oc2ccc(cc2Cl)C1O)C(F)(F)F (stereo not drawn) [Compound 231]	2	2	–	–
CC1OC(OC2C(Oc3c4cc5cc3Oc3ccc(cc3Cl)C(O)C3NC(=O)C(NC(=O)C5NC(=O)C(CC(N)=O)NC(=O)C(NC(=O)CCC=O)C(O)c5ccc(c(Cl)c5)O4)c4ccc(O)c(c4)-c4c(O)cc(O)cc4C(C(=O)O)NC3=O)OC(CO)C(O)C2O)CC(C)(NCc2ccc(-c3ccc(Cl)cc3)cc2)C1O (stereo not drawn) [Compound 204]	2	2	–	–
CC1OC(OC2C(Oc3c4cc5cc3Oc3ccc(cc3Cl)C(O)C3NC(=O)C(NC(=O)C5NC(=O)C(CC(N)=O)NC(=O)C(NC(=O)c5cc(O)cc(O)c5)C(O)c5ccc(c(Cl)c5)O4)c4ccc(O)c(c4)-c4c(O)cc(O)cc4C(C(=O)O)NC3=O)OC(CO)C(O)C2O)CC(C)(NCc2ccc(-c3ccc(Cl)cc3)cc2)C1O (stereo not drawn) [Compound 255]	2	2	–	–
CC1OC(OC2C(Oc3c4cc5cc3Oc3ccc(cc3Cl)[C@@H](O)[C@@H](NC(=O)[C@@H](CCCNC(=N)N)NC(N)=O)C(=O)N[C@@H](CC(N)=O)C(=O)N[C@H]5C(=O)NC3C(=O)N[C@H](C(=O)N[C@@H](C(=O)O)c5cc(O)cc(O)c5-c5cc3ccc5O)[C@H](O)c3ccc(c(Cl)c3)O4)OC(CO)C(O)C2O)CC(C)(NCc2ccc(-c3ccc(Cl)cc3)cc2)C1O (stereo partly drawn) [Compound 187]	–	–	2	2
C#CCC(NC(C)=O)C(=O)NC1C(=O)NC(CC(N)=O)C(=O)NC2C(=O)NC3C(=O)NC(C(=O)NC(C(=O)O)c4cc(O)cc(O)c4-c4cc3ccc4O)C(O)c3ccc(c(Cl)c3)Oc3cc2cc(c3OC2OC(CO)C(O)C(O)C2OC2CC(C)(NCc3ccc(-c4ccc(Cl)cc4)cc3)C(O)C(C)O2)Oc2ccc(cc2Cl)C1O (mixture of isomers) [Compound 177]	–	–	2	2
CC(NC(=O)OC(C)(C)C)C(=O)NCC(=O)NCC(=O)NC1C(=O)NC(CC(N)=O)C(=O)NC2C(=O)NC3C(=O)NC(C(=O)NC(C(=O)O)c4cc(O)cc(O)c4-c4cc3ccc4O)C(O)c3ccc(c(Cl)c3)Oc3cc2cc(c3OC2OC(CO)C(O)C(O)C2OC2CC(C)(NCc3ccc(-c4ccc(Cl)cc4)cc3)C(O)C(C)O2)Oc2ccc(cc2Cl)C1O (stereo not drawn) [Compound 131]	–	–	2	2
CC1OC(OC2C(Oc3c4cc5cc3Oc3ccc(cc3Cl)C(O)C3NC(=O)C(NC(=O)C5NC(=O)C(CC(N)=O)NC(=O)C(NC(=O)CNC(=O)CNC(=O)OC(C)(C)C)C(O)c5ccc(c(Cl)c5)O4)c4ccc(O)c(c4)-c4c(O)cc(O)cc4C(C(=O)O)NC3=O)OC(CO)C(O)C2O)CC(C)(NCc2ccc(-c3ccc(Cl)cc3)cc2)C1O (stereo not drawn) [Compound 223]	2	2	–	–
CC1OC(OC2C(Oc3c4cc5cc3Oc3ccc(cc3Cl)C(O)C3NC(=O)C(NC(=O)C5NC(=O)C(CC(N)=O)NC(=O)C(NC(=O)c5ccc(=O)[nH]n5)C(O)c5ccc(c(Cl)c5)O4)c4ccc(O)c(c4)-c4c(O)cc(O)cc4C(C(=O)O)NC3=O)OC(CO)C(O)C2O)CC(C)(NCc2ccc(-c3ccc(Cl)cc3)cc2)C1O (stereo not drawn) [Compound 298]	2	2	–	–
CC1OC(OC2C(Oc3c4cc5cc3Oc3ccc(cc3Cl)C(O)C3NC(=O)C(NC(=O)C5NC(=O)C(CC(N)=O)NC(=O)C(NC(=O)C5=CC(O)C(O)C(O)C5)C(O)c5ccc(c(Cl)c5)O4)c4ccc(O)c(c4)-c4c(O)cc(O)cc4C(C(=O)O)NC3=O)OC(CO)C(O)C2O)CC(C)(NCc2ccc(-c3ccc(Cl)cc3)cc2)C1O (stereo not drawn) [Compound 201]	–	–	2	2
CC1OC(OC2C(Oc3c4cc5cc3Oc3ccc(cc3Cl)C(O)C3NC(=O)C(NC(=O)C5NC(=O)C(CC(N)=O)NC(=O)C(NC(=O)c5cccnc5Sc5ccc(Cl)cc5)C(O)c5ccc(c(Cl)c5)O4)c4ccc(O)c(c4)-c4c(O)cc(O)cc4C(C(=O)O)NC3=O)OC(CO)C(O)C2O)CC(C)(NCc2ccc(-c3ccc(Cl)cc3)cc2)C1O (stereo not drawn) [Compound 230]	2	2	–	–
CC(=O)Nc1ccc(C(=O)NC2C(=O)NC(CC(N)=O)C(=O)NC3C(=O)NC4C(=O)NC(C(=O)NC(C(=O)O)c5cc(O)cc(O)c5-c5cc4ccc5O)C(O)c4ccc(c(Cl)c4)Oc4cc3cc(c4OC3OC(CO)C(O)C(O)C3OC3CC(C)(NCc4ccc(-c5ccc(Cl)cc5)cc4)C(O)C(C)O3)Oc3ccc(cc3Cl)C2O)cc1 (stereo not drawn) [Compound 265]	2	2	–	–
CC1OC(OC2C(Oc3c4cc5cc3Oc3ccc(cc3Cl)C(O)C3NC(=O)C(NC(=O)C5NC(=O)C(CC(N)=O)NC(=O)C(NC(=O)C(=O)NNC(=N)N)C(O)c5ccc(c(Cl)c5)O4)c4ccc(O)c(c4)-c4c(O)cc(O)cc4C(C(=O)O)NC3=O)OC(CO)C(O)C2O)CC(C)(NCc2ccc(-c3ccc(Cl)cc3)cc2)C1O (stereo not drawn) [Compound 199]	–	–	2	2
C[C@H]1O[C@H](O[C@H]2[C@H](Oc3c4cc5cc3Oc3ccc(cc3Cl)[C@@H](O)[C@@H](NC(=O)c3nc(N)n[nH]3)C(=O)N[C@@H](CC(N)=O)C(=O)N[C@H]5C(=O)N[C@H]3C(=O)N[C@H](C(=O)N[C@@H](C(=O)O)c5cc(O)cc(O)c5-c5cc3ccc5O)[C@H](O)c3ccc(c(Cl)c3)O4)O[C@H](CO)[C@@H](O)[C@@H]2O)C[C@@](C)(NCc2ccc(-c3ccc(Cl)cc3)cc2)[C@H]1O [Compound 256]	2	2	–	–
CC1OC(OC2C(Oc3c4cc5cc3Oc3ccc(cc3Cl)C(O)C3NC(=O)C(NC(=O)C5NC(=O)C(CC(N)=O)NC(=O)C(NC(=O)CNC(=O)CNC(=O)CNC(=O)OC(C)(C)C)C(O)c5ccc(c(Cl)c5)O4)c4ccc(O)c(c4)-c4c(O)cc(O)cc4C(C(=O)O)NC3=O)OC(CO)C(O)C2O)CC(C)(NCc2ccc(-c3ccc(Cl)cc3)cc2)C1O (stereo not drawn) [Compound 139]	–	–	2	2
COC(=O)C=CC(=O)NC1C(=O)NC(CC(N)=O)C(=O)NC2C(=O)NC3C(=O)NC(C(=O)NC(C(=O)O)c4cc(O)cc(O)c4-c4cc3ccc4O)C(O)c3ccc(c(Cl)c3)Oc3cc2cc(c3OC2OC(CO)C(O)C(O)C2OC2CC(C)(NCc3ccc(-c4ccc(Cl)cc4)cc3)C(O)C(C)O2)Oc2ccc(cc2Cl)C1O (stereo not drawn) [Compound 297]	2	2	–	–
CC1OC(OC2C(Oc3c4cc5cc3Oc3ccc(cc3Cl)C(O)C3NC(=O)C(NC(=O)C5NC(=O)C(CC(N)=O)NC(=O)C(NC(=O)CCC(NC(=O)OC(C)(C)C)C(N)=O)C(O)c5ccc(c(Cl)c5)O4)c4ccc(O)c(c4)-c4c(O)cc(O)cc4C(C(=O)O)NC3=O)OC(CO)C(O)C2O)CC(C)(NCc2ccc(-c3ccc(Cl)cc3)cc2)C1O (stereo not drawn) [Compound 137]	–	–	2	2
C[C@H]1O[C@H](O[C@H]2[C@H](Oc3c4cc5cc3Oc3ccc(cc3Cl)[C@@H](O)[C@@H](NC(=O)C(N)CC3CCCCC3)C(=O)N[C@@H](CC(N)=O)C(=O)N[C@H]5C(=O)N[C@H]3C(=O)N[C@H](C(=O)N[C@@H](C(=O)O)c5cc(O)cc(O)c5-c5cc3ccc5O)[C@H](O)c3ccc(c(Cl)c3)O4)O[C@H](CO)[C@@H](O)[C@@H]2O)C[C@@](C)(NCc2ccc(-c3ccc(Cl)cc3)cc2)[C@H]1O (stereo partly drawn) [Compound 4]	–	–	2	2
CC1OC(OC2C(Oc3c4cc5cc3Oc3ccc(cc3Cl)C(O)C3NC(=O)C(NC(=O)C5NC(=O)C(CC(N)=O)NC(=O)C(NC(=O)C(CCC(N)=O)NC(=O)OC(C)(C)C)C(O)c5ccc(c(Cl)c5)O4)c4ccc(O)c(c4)-c4c(O)cc(O)cc4C(C(=O)O)NC3=O)OC(CO)C(O)C2O)CC(C)(NCc2ccc(-c3ccc(Cl)cc3)cc2)C1O (stereo not drawn) [Compound 141]	–	–	2	2
CC(=O)Nc1ccc(C(=O)NC2C(=O)NC(CC(N)=O)C(=O)NC3C(=O)NC4C(=O)NC(C(=O)NC(C(=O)O)c5cc(O)cc(O)c5-c5cc4ccc5O)C(O)c4ccc(c(Cl)c4)Oc4cc3cc(c4OC3OC(CO)C(O)C(O)C3OC3CC(C)(NCc4ccc(-c5ccc(Cl)cc5)cc4)C(O)C(C)O3)Oc3ccc(cc3Cl)C2O)cc1NC(C)=O (stereo not drawn) [Compound 104]	–	–	2	2
